Measurements from US8258151B2, “3-aminoimidazo [1,2-A] pyridine derivatives as SGLT inhibitors” (Merck Patent GmbH, priority 2006, dated 2012).

What was measured:
SGLT1 = target: T1, SGLT1 (Homo sapiens, UniProt P13866); experiment: SGLT1 activity measurement: 14C-AMG uptake in BHK cells transfected with SGLT1; format: cell-based; settings: AMG 50 μM, 37° C., 90 min
T1 construct: expressed in transfected cells
T1 sequence (P13866 1-664): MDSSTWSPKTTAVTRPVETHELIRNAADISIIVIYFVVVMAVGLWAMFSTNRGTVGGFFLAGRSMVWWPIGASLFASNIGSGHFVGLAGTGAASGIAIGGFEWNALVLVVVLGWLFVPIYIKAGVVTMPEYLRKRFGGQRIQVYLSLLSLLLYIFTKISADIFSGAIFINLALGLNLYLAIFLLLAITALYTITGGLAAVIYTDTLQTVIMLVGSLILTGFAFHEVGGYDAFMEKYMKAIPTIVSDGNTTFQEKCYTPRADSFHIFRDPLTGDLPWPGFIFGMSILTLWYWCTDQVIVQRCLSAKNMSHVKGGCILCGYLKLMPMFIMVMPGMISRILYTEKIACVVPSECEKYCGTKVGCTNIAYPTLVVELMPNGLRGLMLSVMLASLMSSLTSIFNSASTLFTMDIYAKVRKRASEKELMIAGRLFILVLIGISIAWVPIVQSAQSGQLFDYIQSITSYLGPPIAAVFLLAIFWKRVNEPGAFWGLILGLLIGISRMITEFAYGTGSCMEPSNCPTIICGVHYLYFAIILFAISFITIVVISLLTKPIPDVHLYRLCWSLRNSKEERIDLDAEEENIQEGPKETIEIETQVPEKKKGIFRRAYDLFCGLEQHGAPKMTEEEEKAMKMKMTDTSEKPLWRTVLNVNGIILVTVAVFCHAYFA
Outline: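 BHK21 cells stably transfected with human SLC5A1 were incubated with 14C-AMG (added solution at 50 μM) ± compound for 90 min at 37 °C. The buffer was 140 mM NaCl, HEPES/Tris, pH 7.4. Lysed-cell radioactivity was counted by scintillation, and non-specific uptake was measured in sodium-free sucrose buffer.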

SGLT2 = target: T2, SGLT2 (Homo sapiens, UniProt P31639); experiment: SGLT2 activity measurement: 14C-AMG uptake in BHK cells transfected with SGLT2; format: cell-based; settings: AMG 2 mM, 37° C., 90 min
T2 construct: expressed in transfected cells
T2 sequence (P31639 1-672): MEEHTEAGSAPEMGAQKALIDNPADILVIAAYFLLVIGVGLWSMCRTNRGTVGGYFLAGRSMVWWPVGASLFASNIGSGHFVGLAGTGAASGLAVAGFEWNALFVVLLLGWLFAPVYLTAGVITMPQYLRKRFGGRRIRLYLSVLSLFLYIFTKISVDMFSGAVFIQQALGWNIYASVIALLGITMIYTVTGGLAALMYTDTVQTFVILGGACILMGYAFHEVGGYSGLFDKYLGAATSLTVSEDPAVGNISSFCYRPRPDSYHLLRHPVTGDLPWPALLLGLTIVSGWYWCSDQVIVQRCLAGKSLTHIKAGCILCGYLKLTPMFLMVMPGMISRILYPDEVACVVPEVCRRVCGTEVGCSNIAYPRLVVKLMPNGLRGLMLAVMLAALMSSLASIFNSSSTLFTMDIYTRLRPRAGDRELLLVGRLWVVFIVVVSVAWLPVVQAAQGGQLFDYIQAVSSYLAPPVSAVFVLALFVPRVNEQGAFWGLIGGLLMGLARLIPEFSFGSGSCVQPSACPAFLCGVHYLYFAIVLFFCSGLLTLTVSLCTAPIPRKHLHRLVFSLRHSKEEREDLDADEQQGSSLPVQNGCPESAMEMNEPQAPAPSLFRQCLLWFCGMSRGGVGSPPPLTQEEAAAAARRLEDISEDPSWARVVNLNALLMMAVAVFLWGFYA
Outline: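 BHK21 cells stably expressing human SGLT2 took up 14C-AMG (added as 2 mM solution) ± compound for 90 min at 37 °C in Na+-containing HEPES/Tris buffer, pH 7.4. Uptake was measured by scintillation counting after lysis. Non-specific uptake was defined in sodium-free sucrose buffer.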

SMILES | IC50 (SGLT1) | IC50 (SGLT2)
CCc1cc(OCCO)cc(OCC(N)=O)c1-c1nc2ccc(F)cn2c1Nc1c(C)cccc1C [Compound A195, 2-[2-(Aminocarbonylmethoxy)-4-(2-hydroxy-ethoxy)-6-ethylphenyl]-3-(2,6-dimethylphenyl-amino)-6-fluoroimidazo[1,2-a]pyridine] | > 10000 nM | 10 to 1000 nM
CCOc1cc(CC)c(-c2nc3ccc(F)cn3c2Nc2c(C)cccc2C)c(OCC(N)=O)c1 [Compound A196, 2-[2-(Aminocarbonylmethoxy)-4-ethoxy-6-ethyl-phenyl]-3-(2,6-dimethylphenylamino)-6-fluoro-imidazo[1,2-a]pyridine] | > 10000 nM | 10 to 1000 nM
COc1cc(Cl)c(-c2nc3ccc(F)cn3c2Nc2c(C)cccc2C)c(OCC(N)=O)c1 [Compound A197, 2-[2-(Aminocarbonylmethoxy)-4-methoxy-6-chlorophenyl]-3-(2,6-dimethylphenylamino)-6-fluoroimidazo[1,2-a]pyridine] | > 10000 nM | 10 to 1000 nM
CCc1cc(OC2COC(=O)O2)cc(OCC(N)=O)c1-c1nc2ccc(F)cn2c1Nc1c(C)cccc1C (stereo not shown) [Compound A198, 2-[2-(Aminocarbonylmethoxy)-4-(2-oxo-1,3-dioxolan-4-yloxy)-6-ethylphenyl]-3-(2,6-dimethyl-phenylamino)-6-fluoroimidazo[1,2-a]pyridine] | 1000 to 10000 nM | 10 to 1000 nM
COc1cc(OC)c(-c2nc3ccc(F)cn3c2Nc2c(C)cccc2C)c(OCC(N)=O)c1 [Compound A199, 2-[2-(Aminocarbonylmethoxy)-4-methoxy-6-methoxyphenyl]-3-(2,6-dimethylphenylamino)-6-fluoroimidazo[1,2-a]pyridine] | > 10000 nM | 10 to 1000 nM
COc1cc(OC)c(-c2nc3ccc(F)cn3c2Nc2c(C)cc(F)cc2C)c(OCC(N)=O)c1 [Compound A200, 2-[2-(Aminocarbonylmethoxy)-4-methoxy-6-methoxyphenyl]-3-(2,6-dimethyl-4-fluorophenyl-amino)-6-fluoroimidazo[1,2-a]pyridine] | > 10000 nM | 10 to 1000 nM
COc1cc(C)c(-c2nc3ccc(F)cn3c2Nc2c(C)cccc2C)c(OCC(N)=O)c1OC [Compound A201, 2-[2-(Aminocarbonylmethoxy)-3,4-dimethoxy-6-methylphenyl]-3-(2,6-dimethylphenylamino)-6-fluoroimidazo[1,2-a]pyridine] | > 10000 nM | 1000 to 10000 nM
CCc1cc(OC)cc(OCC(N)=O)c1-c1nc2ccccn2c1Nc1c(C)cccc1C [Compound A202, 2-[2-(Aminocarbonylmethoxy)-4-methoxy-6-ethylphenyl]-3-(2,6-dimethylphenylamino)-imidazo[1,2-a]pyridine] | 1000 to 10000 nM | 10 to 1000 nM
CCc1cc(OC)cc(OCC(N)=O)c1-c1nc2ccccn2c1Nc1c(C)cc(F)cc1C [Compound A203, 2-[2-(Aminocarbonylmethoxy)-4-methoxy-6-ethylphenyl]-3-(2,6-dimethyl-4-fluorophenyl-amino)imidazo[1,2-a]pyridine] | 1000 to 10000 nM | 10 to 1000 nM
COc1cc(C)c(-c2nc3ccc(F)cn3c2Nc2c(C)cccc2C)c(OCC(N)=O)c1 [Compound A204, 2-[2-(Aminocarbonylmethoxy)-4-methoxy-6-methylphenyl]-3-(2,6-dimethylphenylamino)-6-fluoroimidazo[1,2-a]pyridine] | 1000 to 10000 nM | 10 to 1000 nM
COc1cc(C)c(-c2nc3ccc(F)cn3c2Nc2c(Cl)cccc2Cl)c(OCC(N)=O)c1 [Compound A205, 2-[2-(Aminocarbonylmethoxy)-4-methoxy-6-methylphenyl]-3-(2,6-dichlorophenylamino)-6-fluoroimidazo[1,2-a]pyridine] | 1000 to 10000 nM | 10 to 1000 nM
COc1cc(C)c(-c2nc3cccc(C)n3c2Nc2c(C)cccc2C)c(OCC(N)=O)c1 [Compound A206, 2-[2-(Aminocarbonylmethoxy)-4-methoxy-6-methylphenyl]-3-(2,6-dimethylphenylamino)-5-methylimidazo[1,2-a]pyridine] | > 10000 nM | 10 to 1000 nM
COc1cc(C)c(-c2nc3cccc(N)n3c2Nc2c(C)cccc2C)c(OCC(N)=O)c1 [Compound A207, 2-[2-(Aminocarbonylmethoxy)-4-methoxy-6-methylphenyl]-3-(2,6-dimethylphenylamino)-5-aminoimidazo[1,2-a]pyridine] | > 10000 nM | 10 to 1000 nM
Cc1cccc(C)c1Nc1c(-c2c(C)cc(OCC(O)CO)cc2OCC(N)=O)nc2ccc(F)cn12 (stereo not shown) [Compound A208, 2-[2-(Aminocarbonylmethoxy)-4-(2,3-dihydroxy-propoxy)-6-methylphenyl]-3-(2,6-dimethylphenyl-amino)-6-fluoroimidazo[1,2-a]pyridine] | > 10000 nM | 10 to 1000 nM
Cc1cccc(C)c1Nc1c(-c2ccccc2OCC(N)=O)nc2ccc(C#N)cn12 [Compound A209, 2-[2-(Aminocarbonylmethoxy)phenyl]-3-(2,6-dimethylphenylamino)-6-cyanoimidazo[1,2-a]-pyridine] | > 10000 nM | 1000 to 10000 nM
Cc1cccc(C)c1Nc1c(-c2ccccc2OCC(N)=O)nc2cc(C#N)ccn12 [Compound A210, 2-[2-(Aminocarbonylmethoxy)phenyl]-3-(2,6-dimethylphenylamino)-7-cyanoimidazo[1,2-a]-pyridine] | > 10000 nM | > 10000 nM
COc1ccc(-c2nc3ccc(F)cn3c2Nc2c(C)cccc2C)c(OCC(N)=O)c1 [Compound A211, 2-[2-(Aminocarbonylmethoxy)-4-methoxy-phenyl]-3-(2,6-dimethylphenylamino)-6-fluoro-imidazo[1,2-a]pyridine] | > 10000 nM | 10 to 1000 nM
COc1ccc(-c2nc3ccc(F)cn3c2Nc2c(C)cc(F)cc2C)c(OCC(N)=O)c1 [Compound A212, 2-[2-(Aminocarbonylmethoxy)-4-methoxy-phenyl]-3-(2,6-dimethyl-4-fluorophenylamino)-6-fluoroimidazo[1,2-a]pyridine] | > 10000 nM | 10 to 1000 nM
Cc1cccc(C)c1Nc1c(-c2c(C)cc(OS(=O)(=O)N(C)C)cc2OCC(N)=O)nc2ccc(F)cn12 [Compound A213] | > 10000 nM | 10 to 1000 nM
COc1cc(C)c(-c2nc3ccc(F)cn3c2Nc2c(C)cccc2OC)c(OCC(N)=O)c1 [Compound A214, 2-[2-(Aminocarbonylmethoxy)-4-methoxy-6-methylphenyl]-3-(2-methoxy-6-methylphenyl-amino)-6-fluoroimidazo[1,2-a]pyridine] | > 10000 nM | 10 to 1000 nM
CCc1cc(OC)cc(OCC(N)=O)c1-c1nc2ccc(F)cn2c1Nc1c(C)cccc1OC [Compound A215, 2-[2-(Aminocarbonylmethoxy)-4-methoxy-6-ethylphenyl]-3-(2-methoxy-6-methylphenyl-amino)-6-fluoroimidazo[1,2-a]pyridine] | > 10000 nM | 10 to 1000 nM
CCc1cc(OCC(O)CO)cc(OCC(N)=O)c1-c1nc2ccc(F)cn2c1Nc1c(C)cccc1C (stereo not shown) [Compound A216, 2-[2-(Aminocarbonylmethoxy)-4-(2,3-dihydroxy-propoxy)-6-ethylphenyl]-3-(2,6-dimethylphenyl-amino)-6-fluoroimidazo[1,2-a]pyridine] | > 10000 nM | 10 to 1000 nM
CCc1cc(OC)cc(OCC(N)=O)c1-c1nc2ccc(F)cn2c1Nc1c(C)ccc(Cl)c1C [Compound A217, 2-[2-(Aminocarbonylmethoxy)-4-methoxy-6-ethylphenyl]-3-(3-chloro-2,6-dimethylphenyl-amino)-6-fluoroimidazo[1,2-a]pyridine] | 1000 to 10000 nM | 10 to 1000 nM
